Data from PMC8155022 (Scientific Reports, 2021).
Read-outs that look alike come from different tables or passages of the source.

Assays:
Blk(h) = target: T1, Blk(h) (Homo sapiens, UniProt P51451); assay: Kinase panel; type: biochemical
T1 construct: purchased Cerep (receptors, ion channels, transporters); Eurofins Panlabs (kinases)
Description: (§1) Kinase selectivity was conducted by Eurofins Panlabs Inc (St Charles, MO).

PPARα = target: T2, PPARα (Homo sapiens, UniProt Q07869); assay: nuclear receptor cellular GAL4 reporter assay; type: cell-based; conditions: agonist and antagonist mode; read-out: potency in agonist and antagonist mode
T2 construct: expressed in transfected cells

A3 = target: T3, A3 (Homo sapiens, UniProt P0DMS8); assay: GPCR panel, cAMP or calcium FLIPR assays; type: cell-based
T3 sequence (P0DMS8 1-318): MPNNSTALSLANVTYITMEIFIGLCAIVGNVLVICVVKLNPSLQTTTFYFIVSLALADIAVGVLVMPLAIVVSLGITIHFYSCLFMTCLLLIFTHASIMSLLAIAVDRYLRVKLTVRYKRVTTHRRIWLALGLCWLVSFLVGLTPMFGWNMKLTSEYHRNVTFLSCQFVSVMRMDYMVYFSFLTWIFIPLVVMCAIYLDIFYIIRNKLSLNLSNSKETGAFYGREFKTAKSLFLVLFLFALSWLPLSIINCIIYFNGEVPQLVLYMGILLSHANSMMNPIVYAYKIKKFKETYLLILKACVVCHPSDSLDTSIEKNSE
Description: (§2) 28 GPCRs were evaluated through cAMP or calcium FLIPR assays[67].

[1] = system: human CD4+ T cells under Th17 differentiation; assay: in vitro human Th17 differentiation, cytokine production
Description: On day 4, supernatants were analyzed for IL-17A, IL-17F, IL-22 and IFNγ production.
Total CD4^+ T cells were isolated from peripheral blood mononuclear cells (PBMCs) of healthy donors using a CD4^+ T cell Isolation Kit II (Miltenyl Biotec, Auburn, CA), following the manufacturer’s instructions.
In vitro human Th17 and Th1 differentiation
Total CD4+ T cells were isolated from the peripheral blood mononuclear cells (PBMCs) of healthy donors
using a CD4+ T cell Isolation Kit II (Miltenyl Biotec, Auburn, CA), following the manufacturer’s
instructions. Isolated T cells were resuspended in culture medium and added to a 96-well plate at 1×105
beads (prepared using human T cell activation/expansion kit, Miltenyi Biotec) at final concentration of
3x10^6/mL, and cocktail for either Th17 differentiation (10 µg/mL anti-IL-4, 10 µg/mL anti-IFN, 10 ng/mL
IL-1β, 10 ng/mL IL-23, 50 ng/mL IL-6, 3 ng/mL TGFβ and 20 U/mL IL-2), or for Th1 differentiation (10
µg/mL anti-IL-4, 10 ng/mL IL-12, and 20 U/mL IL-2). Cells were cultured at 37°C and 5% CO2 for 3 days.
Supernatants were assayed for accumulated cytokines using MSD multi-spot assay (Meso Scale
Discovery, Rockville, MD) or R&D ELISA kit.

PPARγ = target: T4, PPARγ (Homo sapiens, UniProt P37231); assay: nuclear receptor cellular GAL4 reporter assay; type: cell-based; conditions: agonist and antagonist mode; read-out: potency in agonist and antagonist mode
T4 construct: expressed in transfected cells

VDR = target: T5, VDR (Homo sapiens, UniProt P11473); assay: nuclear receptor cellular GAL4 reporter assay; type: cell-based; conditions: agonist and antagonist mode; read-out: potency in agonist and antagonist mode
T5 construct: expressed in transfected cells

D2S (h) = target: T6, D2S (h) (Homo sapiens, UniProt P14416); assay: Cerep panel; type: binding
T6 construct: purchased Cerep (receptors, ion channels, transporters); Eurofins Panlabs (kinases)
T6 sequence (P14416 1-414 isoform P14416-2): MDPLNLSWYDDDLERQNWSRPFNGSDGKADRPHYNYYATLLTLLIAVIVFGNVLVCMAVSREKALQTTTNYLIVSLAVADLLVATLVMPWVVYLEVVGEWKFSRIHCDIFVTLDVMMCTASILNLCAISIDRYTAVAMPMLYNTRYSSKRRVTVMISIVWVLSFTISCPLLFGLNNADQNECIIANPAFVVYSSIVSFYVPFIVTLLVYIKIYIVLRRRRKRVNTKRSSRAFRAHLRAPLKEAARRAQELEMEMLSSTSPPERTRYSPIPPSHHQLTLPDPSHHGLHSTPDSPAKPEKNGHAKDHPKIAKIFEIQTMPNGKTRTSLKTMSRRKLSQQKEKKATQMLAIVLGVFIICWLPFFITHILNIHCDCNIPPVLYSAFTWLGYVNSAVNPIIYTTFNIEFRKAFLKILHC
Description: (§3) A panel of 52 different receptors, ion channels and transporters was tested by Cerep, Inc. (Redmond, WA).

PAK4(h) = target: T7, PAK4(h) (Homo sapiens, UniProt O96013); assay: Kinase panel; type: biochemical
T7 construct: purchased Cerep (receptors, ion channels, transporters); Eurofins Panlabs (kinases)
T7 sequence (O96013 whole entry): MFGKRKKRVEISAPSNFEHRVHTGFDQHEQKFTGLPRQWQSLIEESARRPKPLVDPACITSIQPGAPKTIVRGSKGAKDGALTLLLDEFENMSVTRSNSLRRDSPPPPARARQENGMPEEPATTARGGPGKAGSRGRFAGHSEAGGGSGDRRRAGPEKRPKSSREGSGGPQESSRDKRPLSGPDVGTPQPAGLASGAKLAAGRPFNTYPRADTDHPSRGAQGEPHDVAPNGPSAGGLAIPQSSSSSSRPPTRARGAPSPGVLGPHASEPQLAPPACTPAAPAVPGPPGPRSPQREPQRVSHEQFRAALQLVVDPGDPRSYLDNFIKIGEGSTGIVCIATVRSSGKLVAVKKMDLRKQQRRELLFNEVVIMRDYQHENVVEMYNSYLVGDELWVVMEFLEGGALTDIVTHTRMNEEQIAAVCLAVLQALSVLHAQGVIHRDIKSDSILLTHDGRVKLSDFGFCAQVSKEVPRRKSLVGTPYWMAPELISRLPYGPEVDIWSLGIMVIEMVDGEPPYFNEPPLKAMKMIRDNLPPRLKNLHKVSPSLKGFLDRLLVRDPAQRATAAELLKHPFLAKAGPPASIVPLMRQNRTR
Description: as §1

[2] = phase 1 single ascending dose study, pharmacokinetics; type: in vivo, human; conditions: for Tmax: median (range)
Description: Based on mean values, dose normalized overall exposure (AUC216h, AUC∞) also appeared to increase proportionally with dose.
Informed consent was obtained from all participants. No formal sample size and power calculations were performed.
Plasma samples with K2EDTA anticoagulant were treated with acetonitrile for protein extraction then processed with liquid chromatography coupled to tandem mass spectrometry. Reversed-phase HPLC separation was used and tandem MS/MS detection was set in TIS positive mode. […] All the data reported in sample analysis and validation met the predefined acceptance criteria and fulfilled the requirements and recommendations in the current FDA guidance for bioanalytical method validations and analysis.

NK2 = NK2 (Homo sapiens, UniProt P21452); assay: follow-up functional study; type: cell-based
Sequence of NK2 (P21452 whole entry): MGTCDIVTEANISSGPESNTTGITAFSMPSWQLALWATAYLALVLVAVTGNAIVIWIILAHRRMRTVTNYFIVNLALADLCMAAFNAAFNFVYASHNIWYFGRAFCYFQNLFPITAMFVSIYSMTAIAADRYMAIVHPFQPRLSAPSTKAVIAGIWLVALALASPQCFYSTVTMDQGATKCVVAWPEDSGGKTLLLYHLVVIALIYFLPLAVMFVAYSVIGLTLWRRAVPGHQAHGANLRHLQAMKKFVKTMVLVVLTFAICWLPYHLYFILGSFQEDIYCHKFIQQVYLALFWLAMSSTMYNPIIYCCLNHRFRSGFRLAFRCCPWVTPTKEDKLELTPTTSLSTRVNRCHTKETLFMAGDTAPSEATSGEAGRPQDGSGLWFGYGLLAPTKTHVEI

M1 = M1 (Homo sapiens, UniProt P11229); assay: GPCR panel, cAMP or calcium FLIPR assays; type: cell-based
Description: as §2

Cl- channel = assay: Cerep panel; type: binding
Description: as §3

5HT7 = 5HT7 (Homo sapiens, UniProt P34969); assay: GPCR panel, cAMP or calcium FLIPR assays; type: cell-based
Description: as §2

TK6 = assay: mammalian cell (TK6) micronucleus test; type: cell-based; conditions: in vitro
IGF-1R(h) = target: T8, IGF-1R(h) (Homo sapiens, UniProt P08069); assay: Kinase panel; type: biochemical
T8 construct: purchased Cerep (receptors, ion channels, transporters); Eurofins Panlabs (kinases)
T8 sequence (P08069 31-1367): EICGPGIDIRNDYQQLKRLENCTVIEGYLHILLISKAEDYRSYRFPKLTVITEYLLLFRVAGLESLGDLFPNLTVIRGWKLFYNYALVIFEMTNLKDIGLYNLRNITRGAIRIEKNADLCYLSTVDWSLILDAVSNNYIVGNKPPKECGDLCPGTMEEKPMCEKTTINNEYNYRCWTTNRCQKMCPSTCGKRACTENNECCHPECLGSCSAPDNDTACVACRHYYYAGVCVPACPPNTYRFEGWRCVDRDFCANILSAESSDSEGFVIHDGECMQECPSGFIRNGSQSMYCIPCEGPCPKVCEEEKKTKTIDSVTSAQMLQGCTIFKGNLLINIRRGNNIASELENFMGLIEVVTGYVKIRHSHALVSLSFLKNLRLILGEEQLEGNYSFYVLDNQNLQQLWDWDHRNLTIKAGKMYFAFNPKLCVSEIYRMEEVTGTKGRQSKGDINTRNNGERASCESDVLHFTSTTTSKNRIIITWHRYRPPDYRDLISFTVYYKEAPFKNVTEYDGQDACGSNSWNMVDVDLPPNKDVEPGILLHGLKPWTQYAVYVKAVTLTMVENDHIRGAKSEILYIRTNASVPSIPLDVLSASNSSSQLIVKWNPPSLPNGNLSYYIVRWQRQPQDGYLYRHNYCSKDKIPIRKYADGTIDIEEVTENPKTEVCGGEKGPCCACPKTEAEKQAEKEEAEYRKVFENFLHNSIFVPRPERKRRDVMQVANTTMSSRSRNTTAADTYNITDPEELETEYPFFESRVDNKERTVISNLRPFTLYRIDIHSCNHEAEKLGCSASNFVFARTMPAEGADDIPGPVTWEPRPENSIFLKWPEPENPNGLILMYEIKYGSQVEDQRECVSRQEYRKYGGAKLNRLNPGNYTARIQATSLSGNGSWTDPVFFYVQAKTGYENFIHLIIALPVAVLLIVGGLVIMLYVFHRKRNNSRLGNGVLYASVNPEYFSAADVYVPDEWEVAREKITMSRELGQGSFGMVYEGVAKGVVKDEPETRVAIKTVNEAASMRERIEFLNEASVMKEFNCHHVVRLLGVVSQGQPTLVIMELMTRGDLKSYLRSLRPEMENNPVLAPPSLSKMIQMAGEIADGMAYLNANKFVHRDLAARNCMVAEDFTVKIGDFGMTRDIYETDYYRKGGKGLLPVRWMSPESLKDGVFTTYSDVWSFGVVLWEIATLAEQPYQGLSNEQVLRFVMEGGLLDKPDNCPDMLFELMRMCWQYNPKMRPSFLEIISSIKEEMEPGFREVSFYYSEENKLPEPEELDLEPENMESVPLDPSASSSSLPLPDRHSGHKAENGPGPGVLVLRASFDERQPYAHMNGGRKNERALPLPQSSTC
Description: as §1

5-HT6 (h) = target: T9, 5-HT6 (h) (Homo sapiens, UniProt P50406); assay: Cerep panel; type: binding
T9 construct: purchased Cerep (receptors, ion channels, transporters); Eurofins Panlabs (kinases)
T9 sequence (P50406 whole entry): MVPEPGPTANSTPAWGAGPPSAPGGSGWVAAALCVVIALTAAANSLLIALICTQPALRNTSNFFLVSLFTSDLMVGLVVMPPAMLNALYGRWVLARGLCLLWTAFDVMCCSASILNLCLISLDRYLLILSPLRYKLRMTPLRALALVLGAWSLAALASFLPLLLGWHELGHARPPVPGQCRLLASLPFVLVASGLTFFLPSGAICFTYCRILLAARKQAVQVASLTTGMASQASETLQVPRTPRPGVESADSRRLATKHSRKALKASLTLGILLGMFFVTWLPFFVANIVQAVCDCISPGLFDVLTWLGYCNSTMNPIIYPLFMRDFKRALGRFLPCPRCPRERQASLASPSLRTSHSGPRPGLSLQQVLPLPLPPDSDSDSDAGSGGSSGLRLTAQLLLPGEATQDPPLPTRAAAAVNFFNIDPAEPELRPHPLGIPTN
Description: as §3

SAPK4(h) = target: T10, SAPK4(h) (Homo sapiens, UniProt O15264); assay: Kinase panel; type: biochemical
T10 construct: purchased Cerep (receptors, ion channels, transporters); Eurofins Panlabs (kinases)
Description: as §1

Na+ channel (site 2) = assay: Cerep panel; type: binding
Description: as §3

PKA(h) = target: T11, PKA(h) (Homo sapiens, UniProt P17612); assay: Kinase panel; type: biochemical
T11 construct: purchased Cerep (receptors, ion channels, transporters); Eurofins Panlabs (kinases)
Description: as §1

[3] = system: ex vivo stimulated IL-17A production in the blood; assay: mouse PK/PD model, ex vivo stimulated IL-17A production; conditions: 100 mg/kg oral; for inhibition at 100 mg/kg: 5-fold diluted blood
Text: Compound concentrations are also listed as undiluted (measured) and diluted (extrapolated) in Supplementary Table S2.

JAK2(h) = target: T12, JAK2(h) (Homo sapiens, UniProt O60674); assay: Kinase panel; type: biochemical
T12 construct: purchased Cerep (receptors, ion channels, transporters); Eurofins Panlabs (kinases)
T12 sequence (O60674 whole entry): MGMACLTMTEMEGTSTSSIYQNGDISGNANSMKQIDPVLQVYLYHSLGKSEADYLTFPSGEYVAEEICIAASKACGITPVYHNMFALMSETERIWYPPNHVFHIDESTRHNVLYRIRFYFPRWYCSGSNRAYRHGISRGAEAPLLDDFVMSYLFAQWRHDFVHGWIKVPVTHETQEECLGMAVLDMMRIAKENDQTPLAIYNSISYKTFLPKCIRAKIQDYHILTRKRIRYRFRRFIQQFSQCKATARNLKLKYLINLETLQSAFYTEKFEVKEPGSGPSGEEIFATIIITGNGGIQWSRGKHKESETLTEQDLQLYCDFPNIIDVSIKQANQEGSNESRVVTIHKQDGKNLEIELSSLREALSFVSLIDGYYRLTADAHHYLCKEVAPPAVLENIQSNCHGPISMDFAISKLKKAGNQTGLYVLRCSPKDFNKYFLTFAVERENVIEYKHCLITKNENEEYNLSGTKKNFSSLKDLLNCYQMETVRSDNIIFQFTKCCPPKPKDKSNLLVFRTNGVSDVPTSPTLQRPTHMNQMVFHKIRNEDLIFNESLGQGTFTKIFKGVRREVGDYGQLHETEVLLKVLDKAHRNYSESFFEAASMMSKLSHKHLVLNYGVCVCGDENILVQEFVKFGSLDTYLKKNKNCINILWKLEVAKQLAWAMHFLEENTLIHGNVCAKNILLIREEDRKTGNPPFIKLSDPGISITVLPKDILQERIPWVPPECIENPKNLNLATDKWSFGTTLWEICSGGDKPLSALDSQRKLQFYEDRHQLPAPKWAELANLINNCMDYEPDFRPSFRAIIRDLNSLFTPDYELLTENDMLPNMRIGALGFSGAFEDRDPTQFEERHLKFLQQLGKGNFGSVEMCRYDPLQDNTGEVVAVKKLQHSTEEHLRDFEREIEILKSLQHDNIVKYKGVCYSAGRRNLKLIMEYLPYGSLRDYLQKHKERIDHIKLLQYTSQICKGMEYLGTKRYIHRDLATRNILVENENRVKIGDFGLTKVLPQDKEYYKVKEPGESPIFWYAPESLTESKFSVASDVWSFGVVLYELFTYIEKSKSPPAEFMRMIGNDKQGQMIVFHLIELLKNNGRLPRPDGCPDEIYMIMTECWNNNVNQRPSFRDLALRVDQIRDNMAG
Description: as §1

[4] = both sexes, human, plasma, po, 10 mg, 10 mg single oral dose, fasted, n=6, mean (SD)
[5] = both sexes, human, plasma, po, 30 mg, 30 mg single oral dose, fasted, n=6, mean (SD)
[6] = both sexes, human, plasma, po, 100 mg, 100 mg single oral dose, fasted, n=9, mean (SD)
[7] = both sexes, human, plasma, po, 100 mg, 100 mg single oral dose, fed, n=9, mean (SD)
[8] = both sexes, human, plasma, po, 200 mg, 200 mg single oral dose, fasted, n=6, mean (SD)

T1 sequence (P51451 whole entry): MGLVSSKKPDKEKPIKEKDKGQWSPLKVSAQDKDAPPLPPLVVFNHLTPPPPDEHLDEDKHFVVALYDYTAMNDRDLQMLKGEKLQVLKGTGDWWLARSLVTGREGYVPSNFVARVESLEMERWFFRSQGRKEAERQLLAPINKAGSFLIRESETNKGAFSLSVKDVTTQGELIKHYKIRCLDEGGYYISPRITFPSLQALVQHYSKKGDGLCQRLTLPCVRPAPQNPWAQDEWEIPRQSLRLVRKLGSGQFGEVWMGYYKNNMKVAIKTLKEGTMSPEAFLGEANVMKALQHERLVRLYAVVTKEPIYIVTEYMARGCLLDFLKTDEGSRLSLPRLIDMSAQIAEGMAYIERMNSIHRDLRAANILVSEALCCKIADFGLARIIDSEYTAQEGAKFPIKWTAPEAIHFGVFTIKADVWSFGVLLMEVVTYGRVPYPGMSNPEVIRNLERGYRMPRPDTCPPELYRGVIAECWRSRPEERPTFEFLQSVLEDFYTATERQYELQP

For `CC1CCCN1C(=O)c1nc(C(=O)NCC(C)(C)O)sc1-c1ccc(C(O)(C(F)(F)F)C(F)(F)F)c(Cl)c1Cl` (stereo not drawn) [JNJ-61803534], the activity at 1 µM (Blk(h)) was 95%, the activity at 10 µM (Blk(h)) was 102% and the IC50 (PPARα) was greater than 1500 nM. The EC50 (A3; agonist) was greater than 12.5 µM, the IC50 (A3; antagonist) was greater than 12.5 µM and the IC50 ([1]; read-out: IC50 (95% confidence intervals), IL-17A production) was 19 nM. For the same molecule, the IC50 ([1]; read-out: IC50 (95% confidence intervals), IL-17F production) was 22 nM, the IC50 ([1]; read-out: IC50 (95% confidence intervals), IL-22 production) was 27 nM and the IC50 (PPARγ) was greater than 1500 nM. For the same molecule, the IC50 (VDR) was greater than 1500 nM, the inhibition at 1 µM (D2S (h)) was less than 10% and the inhibition at 10 µM (D2S (h)) was less than 10%. It also gave an activity at 1 µM (PAK4(h)) of 104%, an activity at 10 µM (PAK4(h)) of 103% and a Tmax ([2]; 100 mg single oral dose, fed, n=9) of 12 h. It also gave an AUC(0-inf) [2, 4] of 8480 ng·h/mL, a Cmax [2, 4] of 35.9 ng/mL and an AUC(0-t) ([2]; both sexes, human, plasma, po, 10 mg, 10 mg single oral dose, fasted, n=6, mean (SD), read-out: AUC216h) of 5180 ng·h/mL. The half-life ([2]; both sexes, human, plasma, po, 10 mg, 10 mg single oral dose, fasted, n=6, mean (SD), read-out: t1/2 (converted)) was 168 h, the Tmax ([2]; both sexes, human, plasma, po, 10 mg, 10 mg single oral dose, fasted, n=6, read-out: tmax) was 10 h and the AUC(0-inf) [2, 5] was 28700 ng·h/mL. The Cmax [2, 5] was 146 ng/mL, the AUC(0-t) ([2]; both sexes, human, plasma, po, 30 mg, 30 mg single oral dose, fasted, n=6, mean (SD), read-out: AUC216h) was 17400 ng·h/mL and the half-life ([2]; both sexes, human, plasma, po, 30 mg, 30 mg single oral dose, fasted, n=6, mean (SD), read-out: t1/2 (converted)) was 170 h. The Tmax ([2]; both sexes, human, plasma, po, 30 mg, 30 mg single oral dose, fasted, n=6, read-out: tmax) was 6.02 h, the AUC(0-inf) [2, 6] was 100000 ng·h/mL and the Cmax [2, 6] was 700 ng/mL. The AUC(0-t) ([2]; both sexes, human, plasma, po, 100 mg, 100 mg single oral dose, fasted, n=9, mean (SD), read-out: AUC216h) was 68400 ng·h/mL, the AUC(0-t) ([2]; both sexes, human, plasma, po, 100 mg, 100 mg single oral dose, fasted, n=9, mean (SD), read-out: AUClast) was 99100 ng·h/mL and the half-life ([2]; both sexes, human, plasma, po, 100 mg, 100 mg single oral dose, fasted, n=9, mean (SD), read-out: t1/2 (converted)) was 170 h. The Tmax ([2]; both sexes, human, plasma, po, 100 mg, 100 mg single oral dose, fasted, n=9, read-out: tmax) was 6 h, the AUC(0-inf) [2, 7] was 90400 ng·h/mL and the Cmax [2, 7] was 602 ng/mL. For the same molecule, the AUC(0-t) ([2]; both sexes, human, plasma, po, 100 mg, 100 mg single oral dose, fed, n=9, mean (SD), read-out: AUC216h) was 61700 ng·h/mL, the AUC(0-t) ([2]; both sexes, human, plasma, po, 100 mg, 100 mg single oral dose, fed, n=9, mean (SD), read-out: AUClast) was 89700 ng·h/mL and the half-life ([2]; both sexes, human, plasma, po, 100 mg, 100 mg single oral dose, fed, n=9, mean (SD), read-out: t1/2 (converted)) was 168 h. The Tmax ([2]; both sexes, human, plasma, po, 100 mg, 100 mg single oral dose, fed, n=9, read-out: tmax) was 12 h, the AUC(0-inf) [2, 8] was 201000 ng·h/mL and the Cmax [2, 8] was 1810 ng/mL. It also gave an AUC(0-t) ([2]; both sexes, human, plasma, po, 200 mg, 200 mg single oral dose, fasted, n=6, mean (SD), read-out: AUC216h) of 154000 ng·h/mL, an AUC(0-t) ([2]; both sexes, human, plasma, po, 200 mg, 200 mg single oral dose, fasted, n=6, mean (SD), read-out: AUClast) of 200000 ng·h/mL and a half-life ([2]; both sexes, human, plasma, po, 200 mg, 200 mg single oral dose, fasted, n=6, mean (SD), read-out: t1/2 (converted)) of 164 h. For the same molecule, the Tmax ([2]; both sexes, human, plasma, po, 200 mg, 200 mg single oral dose, fasted, n=6, read-out: tmax) was 6 h, the half-life ([2]; both sexes, human, plasma, po, single oral doses 10 to 200 mg, read-out: plasma half-life, mean T1/2 values across the dose groups) was 164 to 170 h and the IC50 (NK2; read-out: IC50 in follow up functional assays) was greater than 30000 nM. For the same molecule, the “effect on NK2 in follow-up functional studies” value (NK2; up to 30 µM) was “no effect”, the EC50 (M1; agonist) was greater than 10 µM and the IC50 (M1; antagonist) was greater than 10 µM. The “% Inhibition at 1 µM” value (Cl- channel; 1 µM) was 10.5%, the “% Inhibition at 10 µM” value (Cl- channel; 10 µM) was 86.4% and the EC50 (5HT7; agonist) was greater than 12.5 µM. The IC50 (5HT7; antagonist) was greater than 12.5 µM, the genetic toxicity (TK6) was “negative” and the activity at 1 µM (IGF-1R(h)) was 95%. The activity at 10 µM (IGF-1R(h)) was 106%, the inhibition at 1 µM (5-HT6 (h)) was less than 10% and the inhibition at 10 µM (5-HT6 (h)) was less than 10%. The activity at 1 µM (SAPK4(h)) was 100%, the activity at 10 µM (SAPK4(h)) was 112% and the “% Inhibition at 1 µM” value (Na+ channel (site 2); 1 µM) was 15%. The “% Inhibition at 10 µM” value (Na+ channel (site 2); 10 µM) was 46%, the activity at 1 µM (PKA(h)) was 85% and the activity at 10 µM (PKA(h)) was 88%. It also gave an inhibition at 100 mg/kg ([3]; 1 h post-dose) of 86 ± 6.7%, an inhibition at 100 mg/kg ([3]; 2 h post-dose) of 89 ± 7.1% and an inhibition at 100 mg/kg ([3]; 4 h post-dose) of 72 ± 14%. It also gave an inhibition at 100 mg/kg ([3]; 7 h post-dose) of 75 ± 7.5%, an inhibition at 100 mg/kg ([3]; 12 h post-dose) of 62 ± 17% and an inhibition at 100 mg/kg ([3]; 18 h post-dose, without statistical significance) of 30 ± 60%. The EC50 at 100 mg/kg ([3]; concentration in 5-fold diluted plasma, read-out: compound concentration for 50% inhibition of ex vivo IL-17A) was 240 to 860 nM, the activity at 1 µM (JAK2(h)) was 109% and the activity at 10 µM (JAK2(h)) was 105%.
